How the values were obtained:
Format in all cases: in vivo, beagle dogs
B. burgdorferi [1] = assay: Study B: QC6 ELISA in tick-infected dogs; conditions: 8 dogs/group
Source text: (§1) Three outer surface proteins (Osp) on B. burgdorferi are important for diagnosis and prevention, and are expressed by the organism in response to its local environment. […] OspF is another surface protein that is generally observed in late-stage disease. The C in […] refers to a 25-amino acid, C6 peptide in the sixth invariable region of an outer membrane lipoprotein (VIsE). Antibody against C6 is highly accurate as a serologic diagnosis of Lyme disease independent of a subject's (e.g., canine) vaccination status. Further, the generation of C6 antibodies implies an active infection with viable spirochetes. Serological methods for detecting B. burgdorfer/Lyme disease were conducted using the IDEXX qualitative SNAP-4Dx ELISA and the Quantitative C6 (Quant C6 or QC6) diagnostic kits, which are enzyme linked immunosorbent assays against the previously described 25-amino-acid C6 peptide. QC6 ELISA data, units/mL, are useful for guidance in initiating and evaluating response to therapy (See Levy S A, O'Connor T P, Hanscom J L, Shields P, et al. Quantitative measurement of a C6 antibody following antibiotic treatment of Borrelia burgdorferi antibody-positive, nonclinical dogs. Clin Vacc Immunol 2008; 15(1):115-119 and Littman M P, Goldstein R E, Labato M A, et al. ACVIM Small Animal Concensus Statement on Lyme Disease in Dogs: Diagnosis, Treatment and Prevention. J Vet Intern Med 2006; 20: 422-434).
(§2) Thirty-two (18 male and 14 female) beagle dogs were sero-negative for Borrelia burgdorferi, not vaccinated with any Borrelia spp vaccines, and acclimated at the study facility for seven days. The study was conducted under National Research Council guidelines (1996). […] Field-caught Ixodes from the northeast USA were placed on the dogs without containment chambers for 10 days; after ticks fed to repletion, dogs were treated with two applications of an approved topical acaricide with a 30-day interval between applications.
(§3) Forty days post-challenge, and prior to antibiotic treatments, blood was collected from each dog as were two skin biopsy punch samples near tick attachment sites. Blood was collected approximately monthly post-treatment. Skin biopsies were taken near the tick attachment site on Days 48/49, 118, 146, 180, and 315. Serum antibodies to Borrelia were assayed using the IDEXX SNAP-4Dx and QC6 ELISA. In cooperation with Cornell University, serum samples were analyzed using fluorescent-bead-based multiplex assays detecting antibodies against B. burgdorferi outer surface proteins OspA, OspC, and OspF. Data were expressed as median fluorescent intensities (MFI), and shown to be specific and sensitive to provide interpretative guidelines regarding infection. The skin biopsies were collected for a polymerase chain reaction (PCR; FlaB) assay and cultured for spirochete detection. At the end of the study, blood and skin biopsies were collected and synovial tissue from the joints were harvested at necropsy.
(§4) On Day 75 and Day 89 Convenia was administered to the eight dogs in T04 (8 mg/kg bodyweight; subcutaneous injection). The other treated groups received their respective regimens daily and orally for 30 days from Days 75 to 104. […] Dogs in T01 served as infected, untreated, controls. Inter-treatment comparisons to evaluate antibiotic efficacy included clinical signs, serology, culture results and pathology.

B. burgdorferi [2] = assay: Study B: microscopic examination of joints and skin at necropsy; conditions: for Number of Joints with Changes as Described for Lyme disease: N = 8
Experimental: as §2, §3, §4
At necropsy ten joints were harvested per each dog, formalin-fixed, stained and examined microscopically. Joints included the carpus, elbow, shoulder, stifle and tarsus on both the right and left limbs. Further, a section of skin near tick attachment sites was evaluated from each dog. There were two dogs in the Convenia group (25%) with tissues showing changes as described for Lyme disease, compared to seven controls (87.5%) and three (37.5%) to four (50.0%) dogs in the other antibiotic-treated groups (Table 7). […] The Convenia group had the lowest incidence of joint changes with six affected of 80.

B. burgdorferi [3] = assay: Study B: SNAP-4Dx ELISA in tick-infected dogs; conditions: N = 8/group
Source text: as §1, §2, §3, §4

[4] = test system: B. burgdorferi outer surface protein OspF; assay: Study B: fluorescent-bead-based multiplex assay, antibodies against OspF; conditions: for Multiplex Assay OspF: No. Dogs > Positive Threshold (# dogs > 1500): 8 dogs/group
Experimental: as §2
as §3, with “Data were expressed as median fluorescent intensities (MFI), and shown to be specific and sensitive to provide interpretative guidelines regarding infection.” left out
On Day 75 and Day 89 Convenia was administered to the eight dogs in T04 (8 mg/kg bodyweight; subcutaneous injection). The other treated groups received their respective regimens daily and orally for 30 days from Days 75 to 104. […] Dogs in T01 served as infected, untreated, controls.

[5] = joints, skin, 8 dogs/group, necropsy

## C[C@H]1c2cccc(O)c2C(=O)C2=C(O)[C@]3(O)C(=O)C(C(N)=O)=C(O)[C@@H](N(C)C)[C@@H]3[C@@H](O)[C@@H]21 [doxycycline]
B. burgdorferi [1]; Day 48 (pre-treatment)
  Dogs Sero-converted to B. burgdorferi per QC6 ELISA (≧30 U/mL), (%): 75.0%
  Number of Dogs Sero-converted to B. burgdorferi per QC6 ELISA (≧30 U/mL), No.: 6
B. burgdorferi [1]; Day 111
  Dogs Sero-converted to B. burgdorferi per QC6 ELISA (≧30 U/mL), (%): 62.5%
  Number of Dogs Sero-converted to B. burgdorferi per QC6 ELISA (≧30 U/mL), No.: 5
B. burgdorferi [1]; Day 145
  Dogs Sero-converted to B. burgdorferi per QC6 ELISA (≧30 U/mL), (%): 0.0%
  Number of Dogs Sero-converted to B. burgdorferi per QC6 ELISA (≧30 U/mL), No.: 0
B. burgdorferi [1]; Day 179
  Dogs Sero-converted to B. burgdorferi per QC6 ELISA (≧30 U/mL), (%): 0.0%
  Number of Dogs Sero-converted to B. burgdorferi per QC6 ELISA (≧30 U/mL), No.: 0
B. burgdorferi [1]; Day 221
  Dogs Sero-converted to B. burgdorferi per QC6 ELISA (≧30 U/mL), (%): 0.0%
  Number of Dogs Sero-converted to B. burgdorferi per QC6 ELISA (≧30 U/mL), No.: 0
B. burgdorferi [1]; Day 251
  Dogs Sero-converted to B. burgdorferi per QC6 ELISA (≧30 U/mL), (%): 0.0%
  Number of Dogs Sero-converted to B. burgdorferi per QC6 ELISA (≧30 U/mL), No.: 0
B. burgdorferi [1]; Day 281
  Dogs Sero-converted to B. burgdorferi per QC6 ELISA (≧30 U/mL), (%): 0.0%
  Number of Dogs Sero-converted to B. burgdorferi per QC6 ELISA (≧30 U/mL), No.: 0
B. burgdorferi [1]; Day 314
  Dogs Sero-converted to B. burgdorferi per QC6 ELISA (≧30 U/mL), (%): 0.0%
  Number of Dogs Sero-converted to B. burgdorferi per QC6 ELISA (≧30 U/mL), No.: 0
B. burgdorferi [2]; 80 total/group
  Number of Joints with Changes as Described for Lyme disease, Cumulative: 11
B. burgdorferi [2]; Carpus L
  Number of Joints with Changes as Described for Lyme disease: 1
B. burgdorferi [2]; Carpus R
  Number of Joints with Changes as Described for Lyme disease: 2
B. burgdorferi [2]; Elbow L
  Number of Joints with Changes as Described for Lyme disease: 1
B. burgdorferi [2]; Elbow R
  Number of Joints with Changes as Described for Lyme disease: 1
B. burgdorferi [2]; Shoulder L
  Number of Joints with Changes as Described for Lyme disease: 1
B. burgdorferi [2]; Shoulder R
  Number of Joints with Changes as Described for Lyme disease: 0
B. burgdorferi [2]; Stifle L
  Number of Joints with Changes as Described for Lyme disease: 1
B. burgdorferi [2]; Stifle R
  Number of Joints with Changes as Described for Lyme disease: 2
B. burgdorferi [2]; Tarsus L
  Number of Joints with Changes as Described for Lyme disease: 2
B. burgdorferi [2]; Tarsus R
  Number of Joints with Changes as Described for Lyme disease: 0
B. burgdorferi [2]; [5]
  No Tissue Changes, # Dogs: 5
  No Tissue Changes, %: 62.5%
  Tissue Changes Described for Lyme Disease, # Dogs: 3
  Tissue Changes Described for Lyme Disease, %: 37.5%
B. burgdorferi [3]; Day 48 (pre-treatment; antibiotics from Day 75)
  SNAP-4Dx Positives, Number of Dogs: 6
B. burgdorferi [3]; Day 111
  SNAP-4Dx Positives, Number of Dogs: 7
B. burgdorferi [3]; Day 145
  SNAP-4Dx Positives, Number of Dogs: 6
B. burgdorferi [3]; Day 179
  SNAP-4Dx Positives, Number of Dogs: 1
B. burgdorferi [3]; Day 221
  SNAP-4Dx Positives, Number of Dogs: 0
B. burgdorferi [3]; Day 251
  SNAP-4Dx Positives, Number of Dogs: 0
B. burgdorferi [3]; Day 281
  SNAP-4Dx Positives, Number of Dogs: 0
B. burgdorferi [3]; Day 315
  SNAP-4Dx Positives, Number of Dogs: 0
B. burgdorferi [3]; Day −15 (pre-infection)
  SNAP-4Dx Positives, Number of Dogs: 0
[4]; Day 48 (pre-treatment)
  Multiplex Assay OspF: MFI Mean: 943.38 MFI
  Multiplex Assay OspF: No. Dogs > Positive Threshold (# dogs > 1500): 1
[4]; Day 111
  Multiplex Assay OspF: MFI Mean: 1174.38 MFI
  Multiplex Assay OspF: No. Dogs > Positive Threshold (# dogs > 1500): 1
[4]; Day 145
  Multiplex Assay OspF: MFI Mean: 490.63 MFI
  Multiplex Assay OspF: No. Dogs > Positive Threshold (# dogs > 1500): 0
[4]; Day 179
  Multiplex Assay OspF: MFI Mean: 395.88 MFI
  Multiplex Assay OspF: No. Dogs > Positive Threshold (# dogs > 1500): 0
[4]; Day 221
  Multiplex Assay OspF: MFI Mean: 334.75 MFI
  Multiplex Assay OspF: No. Dogs > Positive Threshold (# dogs > 1500): 0
[4]; Day 251
  Multiplex Assay OspF: MFI Mean: 340.88 MFI
  Multiplex Assay OspF: No. Dogs > Positive Threshold (# dogs > 1500): 0
[4]; Day 281
  Multiplex Assay OspF: MFI Mean: 343.63 MFI
  Multiplex Assay OspF: No. Dogs > Positive Threshold (# dogs > 1500): 0
[4]; Day 314
  Multiplex Assay OspF: MFI Mean: 353.25 MFI
  Multiplex Assay OspF: No. Dogs > Positive Threshold (# dogs > 1500): 0
[4]; Day −15 (pre-infection)
  Multiplex Assay OspF: MFI Mean: 113.50 MFI
  Multiplex Assay OspF: No. Dogs > Positive Threshold (# dogs > 1500): 0
